Experimental findings from EP1100539B1, “COMBINATION OF ACTIVE SUBSTANCES, ESPECIALLY FOR THE PROPHYLAXIS AND THERAPY OF ISCHAEMIC ORGANIC LESIONS AND REPERFUSION SYNDROMES” (Vascular Biotech GmbH, priority 1998, dated 2000) are described below.

Values joined by “and” are separate entries in the source; they are usually repeats but may differ in a detail not shown here. Equal entries are not always repeated.

The subject of the experiment is Meerschweinchenherzen. Nature of the experiment: Working guinea pig heart, ischaemia/reperfusion with activated PMN and platelets (Versuchsgruppe 1). Details: species or system Meerschweinchen. The following applies: for Herzleistung [% der initialen Leistung] / Interstitielles Volumen / Koronarfluß [% des Basalflusses]: flavone derivative 3*10^-5 M, individual hearts; for protektive Wirkung: ischaemic heart, Versuchsgruppe 1. As for the experimental part: Pathogene Wirkung von gleichzeitig aktivierten PMN und Thrombozyten im ischämischen Herzen. Als Studienobjekt dienten arbeitende, also Volumen gegen bestimmte Drucke auswerfende Meerschweinchenherzen. […] Thrombin, FMLP ([…]-Formyl-[…]) und […] Interaktion der Blutzellen mit dem koronaren Endothel bei diesen Versuchen. Tabelle 3: ^i Als Blutzellpräparate wurden eingesetzt: a) hochreine PMN (1-2*10^5/ml), […] Vorinkubation mit 100 μM […]) bzw. […] von PMN und TASS (bzw. T) in jeweils analogen Konzentrationen. Tabelle 3 gibt die unter […] bei […] von PMN und Thrombozyten (TASS = […] Vorinkubation mit 100μM […] = nicht […].

Where [1] appears, read: PMN+T (platelets not preincubated with Acetylsalicylsäure).
Where [2] appears, read: PMN+TASS (platelets preincubated 1 h with 100 µM Acetylsalicylsäure, washed).
[3] abbreviates: acute application of the flavonoid alone.
Where [4] appears, read: flavonoid applied in combination with Acetylsalicylsäure.

On to `O=C1CCOc2ccccc21` [4-Chromanon, reference compound], for which the “protektive Wirkung” value is recorded as “keine protektive Wirkung”. Moreover, under setting [1], the “Herzleistung [% der initialen Leistung]” value was 27 % der initialen Leistung and 29 % der initialen Leistung and 38 % der initialen Leistung and 31 % der initialen Leistung and 17 % der initialen Leistung and 22 % der initialen Leistung; the “Interstitielles Volumen” value was 373 µL/g and 348 µL/g and 354 µL/g and 318 µL/g and 356 µL/g; the “Koronarfluß [% des Basalflusses]” value was 44 % des Basalflusses and 19 % des Basalflusses and 35 % des Basalflusses and 26 % des Basalflusses and 29 % des Basalflusses. In addition, under setting [2], the “Herzleistung [% der initialen Leistung]” value is 79 % der initialen Leistung and 81 % der initialen Leistung and 74 % der initialen Leistung and 71 % der initialen Leistung and 69 % der initialen Leistung and 78 % der initialen Leistung; the “Interstitielles Volumen” value is 155 µL/g and 148 µL/g and 168 µL/g and 161 µL/g and 165 µL/g; the “Koronarfluß [% des Basalflusses]” value was 88 % des Basalflusses and 74 % des Basalflusses and 79 % des Basalflusses (2×) and 81 % des Basalflusses and 82 % des Basalflusses.

For the compound `O=c1cc(-c2ccccc2)oc2ccccc12` [Flavon, reference compound], the “protektive Wirkung” value is on record as “keine protektive Wirkung”. In addition, under setting [1], the “Herzleistung [% der initialen Leistung]” value is 31 % der initialen Leistung (2×) and 18 % der initialen Leistung and 35 % der initialen Leistung and 29 % der initialen Leistung; the “Interstitielles Volumen” value was 344 µL/g and 389 µL/g and 388 µL/g and 358 µL/g and 346 µL/g; the “Koronarfluß [% des Basalflusses]” value was 33 % des Basalflusses and 19 % des Basalflusses and 31 % des Basalflusses and 28 % des Basalflusses and 29 % des Basalflusses. Besides, under setting [2], the “Herzleistung [% der initialen Leistung]” value was 78 % der initialen Leistung and 81 % der initialen Leistung and 69 % der initialen Leistung and 82 % der initialen Leistung and 83 % der initialen Leistung; the “Interstitielles Volumen” value was 129 µL/g and 153 µL/g and 145 µL/g and 148 µL/g and 169 µL/g; the “Koronarfluß [% des Basalflusses]” value was 88 % des Basalflusses and 77 % des Basalflusses and 73 % des Basalflusses and 81 % des Basalflusses and 87 % des Basalflusses.

On to `O=C1C[C@@H](c2ccc(O)cc2)Oc2cc(O)cc(O)c21` [Naringenin], for which, under setting [1], the “Herzleistung [% der initialen Leistung]” value was 63 % der initialen Leistung and 49 % der initialen Leistung and 54 % der initialen Leistung and 69 % der initialen Leistung and 68 % der initialen Leistung; the “Interstitielles Volumen” value is 169 µL/g and 175 µL/g and 189 µL/g and 205 µL/g and 198 µL/g; the “Koronarfluß [% des Basalflusses]” value is 57 % des Basalflusses and 55 % des Basalflusses and 63 % des Basalflusses and 51 % des Basalflusses and 45 % des Basalflusses and 46 % des Basalflusses. In addition, under setting [2], the “Herzleistung [% der initialen Leistung]” value is 90 % der initialen Leistung and 97 % der initialen Leistung and 84 % der initialen Leistung and 94 % der initialen Leistung and 82 % der initialen Leistung and 89 % der initialen Leistung; the “Interstitielles Volumen” value is 98 µL/g and 117 µL/g and 107 µL/g and 109 µL/g and 102 µL/g; the “Koronarfluß [% des Basalflusses]” value is 107 % des Basalflusses and 98 % des Basalflusses and 93 % des Basalflusses and 92 % des Basalflusses and 89 % des Basalflusses and 101 % des Basalflusses. Also, under setting [3], the “Verschlechterung der postischämischen Funktionsdaten (ΔP/Δt; interstitielles Volumen; Koronarfluß)” value is reported as “abgeschwächt”. The “Verschlechterung der postischämischen Funktionsdaten (ΔP/Δt; interstitielles Volumen; Koronarfluß)” value under setting [4] is listed as “vollständig aufgehoben”.

Take `O=c1c(O)c(-c2ccc(O)c(O)c2)oc2cc(O)cc(O)c12` [Quercetin]: under setting [1], the “Herzleistung [% der initialen Leistung]” value is 66 % der initialen Leistung and 69 % der initialen Leistung and 58 % der initialen Leistung and 44 % der initialen Leistung and 70 % der initialen Leistung; the “Interstitielles Volumen” value was 159 µL/g and 178 µL/g and 181 µL/g and 185 µL/g and 162 µL/g; the “Koronarfluß [% des Basalflusses]” value was 61 % des Basalflusses and 49 % des Basalflusses (2×) and 55 % des Basalflusses and 62 % des Basalflusses and 40 % des Basalflusses. Under setting [2], the “Herzleistung [% der initialen Leistung]” value was 82 % der initialen Leistung and 86 % der initialen Leistung and 90 % der initialen Leistung and 85 % der initialen Leistung and 94 % der initialen Leistung; the “Interstitielles Volumen” value was 108 µL/g and 113 µL/g and 107 µL/g and 104 µL/g and 125 µL/g and 118 µL/g; the “Koronarfluß [% des Basalflusses]” value is 101 % des Basalflusses and 107 % des Basalflusses and 89 % des Basalflusses and 95 % des Basalflusses and 91 % des Basalflusses. Moreover, under setting [3], the “Verschlechterung der postischämischen Funktionsdaten (ΔP/Δt; interstitielles Volumen; Koronarfluß)” value is “abgeschwächt”. Moreover, the “Verschlechterung der postischämischen Funktionsdaten (ΔP/Δt; interstitielles Volumen; Koronarfluß)” value under setting [4] is on record as “vollständig aufgehoben”.

For the compound Catechin [reference compound], the “protektive Wirkung” value is listed as “keine protektive Wirkung”. Under setting [1], the “Herzleistung [% der initialen Leistung]” value was 36 % der initialen Leistung and 39 % der initialen Leistung and 31 % der initialen Leistung and 26 % der initialen Leistung and 18 % der initialen Leistung; the “Interstitielles Volumen” value was 351 µL/g and 310 µL/g and 311 µL/g and 317 µL/g and 370 µL/g; the “Koronarfluß [% des Basalflusses]” value is 37 % des Basalflusses and 27 % des Basalflusses and 34 % des Basalflusses and 17 % des Basalflusses and 14 % des Basalflusses and 28 % des Basalflusses. Moreover, under setting [2], the “Herzleistung [% der initialen Leistung]” value was 75 % der initialen Leistung and 68 % der initialen Leistung and 67 % der initialen Leistung and 81 % der initialen Leistung (2×) and 77 % der initialen Leistung; the “Interstitielles Volumen” value is 145 µL/g and 157 µL/g and 163 µL/g and 148 µL/g and 166 µL/g; the “Koronarfluß [% des Basalflusses]” value was 88 % des Basalflusses and 78 % des Basalflusses and 82 % des Basalflusses and 79 % des Basalflusses and 85 % des Basalflusses.

As for Dihydroxyethylrutosid, under setting [1], the “Herzleistung [% der initialen Leistung]” value is 49 % der initialen Leistung and 58 % der initialen Leistung and 65 % der initialen Leistung and 72 % der initialen Leistung and 78 % der initialen Leistung and 74 % der initialen Leistung; the “Interstitielles Volumen” value was 144 µL/g and 186 µL/g and 151 µL/g and 157 µL/g and 165 µL/g; the “Koronarfluß [% des Basalflusses]” value is 49 % des Basalflusses and 51 % des Basalflusses and 39 % des Basalflusses and 47 % des Basalflusses and 64 % des Basalflusses and 69 % des Basalflusses. Under setting [2], the “Herzleistung [% der initialen Leistung]” value is 93 % der initialen Leistung and 94 % der initialen Leistung and 86 % der initialen Leistung and 84 % der initialen Leistung and 89 % der initialen Leistung; the “Interstitielles Volumen” value is 98 µL/g and 104 µL/g and 95 µL/g and 115 µL/g and 107 µL/g and 109 µL/g; the “Koronarfluß [% des Basalflusses]” value was 102 % des Basalflusses and 107 % des Basalflusses and 98 % des Basalflusses and 93 % des Basalflusses and 95 % des Basalflusses and 89 % des Basalflusses. For the same compound, the “Verschlechterung der postischämischen Funktionsdaten (ΔP/Δt; interstitielles Volumen; Koronarfluß)” value under setting [3] is listed as “abgeschwächt”. Under setting [4], the “Verschlechterung der postischämischen Funktionsdaten (ΔP/Δt; interstitielles Volumen; Koronarfluß)” value is “vollständig aufgehoben”.
